The test system of this series is guinea pig T lymphocytes. The series can be described thus: rosette test on guinea pig T lymphocytes in immunosuppressed guinea pigs. Format: in vivo. How it is done:
The composition of the invention was also tested in vivo in various animal systems. Using the rosette test on guinea pig T lymphocytes, the state of cellular immunity under the influence of the composition according to the invention in combination with Oxoplatin, Campto, Taxol and Eloxatin was investigated. In each test, the improvement of the T lymphocyte state in immunosuppressed guinea pigs after administration of the composition according to the invention was tested. Prior to testing, the level of T lymphocytes in the guinea pigs was determined using the rosette test, and subsequently, the decrease in the amount of T lymphocytes caused by the immunosuppressant Azathioprin was determined. A second determination of the T lymphocytes was made seven days after application of Azathioprin. This was followed by subcutaneous application of the composition of the invention into the laboratory animals. The last determination of the T lymphocyte count in the guinea pigs was made 14 to 19 days after application of the composition according to the invention.

On to `CCc1c2c(nc3ccc(OC(=O)N4CCC(N5CCCCC5)CC4)cc13)-c1cc3c(c(=O)n1C2)COC(=O)[C@]3(O)CC` [Campto], for which the “drop in production of rosettes following application of the cytostatic agent” value (guinea pigs, rosette test) was 23%.
Take `O=C1[O][Pt]2([NH][C@@H]3CCCC[C@H]3[NH]2)[O]C1=O` [Eloxatin]: the “drop in production of rosettes following application of the cytostatic agent” value (guinea pig, in vivo) is 22%.
The same measure, in the same setting: in the case of `N.N.[Cl-].[Cl-].[OH-].[OH-].[Pt+4]` [Oxoplatin] it was “about 30%”.
On the same count and under the same terms, in the case of `CC(=O)O[C@H]1C(=O)[C@@]2(C)[C@H]([C@H](OC(=O)c3ccccc3)[C@]3(O)C[C@H](OC(=O)[C@H](O)[C@@H](NC(=O)c4ccccc4)c4ccccc4)C(C)=C1C3(C)C)[C@]1(OC(C)=O)CO[C@@H]1C[C@@H]2O` [Taxol] it was 16%.

The values are drawn from patent US20080220083A1, “Pharmaceutical Agent Comprising Blood Components <10 Kda And Their Use For Prophylaxis And Treatment Of Defects Of The Immune System” (priority 2004, published 2008).
